Assay results as given in ChEMBL document CHEMBL1138410, “SAR studies of 3-arylpropionic acids as potent and selective agonists of sphingosine-1-phosphate receptor-1 (S1P1) with enhanced pharmacokinetic properties” (Bioorg Med Chem Lett, 2007).
“And” between values parts separate entries of the source, which are not always exact repeats. Equal entries are not always repeated.

Tests used:
[1] = target: Sphingosine 1-phosphate receptor 1 (Homo sapiens, UniProt P21453); assay: […] of [35S]GTPgammaS from human S1P1 receptor expressed in CHO cells; type: functional, cell-based
Sphingosine 1-phosphate receptor 1, sequence (P21453 whole entry): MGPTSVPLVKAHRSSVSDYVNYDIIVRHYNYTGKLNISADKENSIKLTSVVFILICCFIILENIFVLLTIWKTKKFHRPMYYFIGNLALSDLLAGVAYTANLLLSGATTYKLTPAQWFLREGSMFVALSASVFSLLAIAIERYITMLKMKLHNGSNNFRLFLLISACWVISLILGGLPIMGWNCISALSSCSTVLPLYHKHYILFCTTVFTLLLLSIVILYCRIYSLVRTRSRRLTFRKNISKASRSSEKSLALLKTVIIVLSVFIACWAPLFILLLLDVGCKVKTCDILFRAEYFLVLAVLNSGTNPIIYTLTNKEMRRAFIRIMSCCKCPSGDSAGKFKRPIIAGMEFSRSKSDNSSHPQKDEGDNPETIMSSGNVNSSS

[2] = system: Mus musculus; assay: Effect on peripheral lymphocyte lowering in orally dosed mouse; type: functional
[3] = target: Sphingosine 1-phosphate receptor 2 (Homo sapiens, UniProt O95136); assay: Displacement of [33P]S1P from human S1P2 receptor expressed in CHO cells; type: cell-based
Sphingosine 1-phosphate receptor 2, sequence (O95136 whole entry): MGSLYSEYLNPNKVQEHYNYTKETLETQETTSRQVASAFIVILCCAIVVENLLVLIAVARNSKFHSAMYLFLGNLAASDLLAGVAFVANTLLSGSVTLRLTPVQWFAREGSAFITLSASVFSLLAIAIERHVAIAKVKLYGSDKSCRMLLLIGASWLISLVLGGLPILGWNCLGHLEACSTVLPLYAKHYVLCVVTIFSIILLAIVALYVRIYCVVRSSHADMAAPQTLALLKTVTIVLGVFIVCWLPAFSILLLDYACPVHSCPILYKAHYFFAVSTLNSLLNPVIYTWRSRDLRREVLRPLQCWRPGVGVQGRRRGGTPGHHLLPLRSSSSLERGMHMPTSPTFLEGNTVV

[4] = target: T1, Sphingosine 1-phosphate receptor 4 (Homo sapiens, UniProt O95977); assay: Displacement of [33P]S1P from human S1P4 receptor expressed in CHO cells; type: cell-based
T1 sequence (O95977 whole entry): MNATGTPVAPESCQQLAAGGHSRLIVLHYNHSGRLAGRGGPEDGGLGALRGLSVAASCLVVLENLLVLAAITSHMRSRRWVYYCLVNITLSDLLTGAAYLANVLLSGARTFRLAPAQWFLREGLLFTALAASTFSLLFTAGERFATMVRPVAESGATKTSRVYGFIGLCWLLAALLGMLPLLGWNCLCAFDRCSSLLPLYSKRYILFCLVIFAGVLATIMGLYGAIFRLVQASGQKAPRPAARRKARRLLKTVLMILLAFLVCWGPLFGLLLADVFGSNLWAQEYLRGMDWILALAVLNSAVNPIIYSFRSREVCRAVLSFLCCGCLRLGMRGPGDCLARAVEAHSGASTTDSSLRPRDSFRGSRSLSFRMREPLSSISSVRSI

[5] = target: Sphingosine 1-phosphate receptor 3 (Homo sapiens, UniProt Q99500); assay: […] of [35S]GTP-gamma-S from human S1P3 receptor expressed in CHO cells; type: functional, cell-based
Sphingosine 1-phosphate receptor 3, sequence (Q99500 whole entry): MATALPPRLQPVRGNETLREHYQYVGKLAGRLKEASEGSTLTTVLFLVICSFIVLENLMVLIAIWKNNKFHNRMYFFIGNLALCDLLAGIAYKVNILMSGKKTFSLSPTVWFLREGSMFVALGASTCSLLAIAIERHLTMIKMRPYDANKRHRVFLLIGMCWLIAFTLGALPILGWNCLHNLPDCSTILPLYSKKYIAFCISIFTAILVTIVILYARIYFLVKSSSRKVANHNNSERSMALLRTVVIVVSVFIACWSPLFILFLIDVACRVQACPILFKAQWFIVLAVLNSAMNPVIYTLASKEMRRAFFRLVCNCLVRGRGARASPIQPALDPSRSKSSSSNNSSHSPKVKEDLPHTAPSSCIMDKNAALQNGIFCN

[6] = target: Sphingosine 1-phosphate receptor 5 (Homo sapiens, UniProt Q9H228); assay: […] of [35S]GTP-gamma-S from human S1P5 receptor expressed in CHO cells; type: functional, cell-based
Sphingosine 1-phosphate receptor 5, sequence (Q9H228 whole entry): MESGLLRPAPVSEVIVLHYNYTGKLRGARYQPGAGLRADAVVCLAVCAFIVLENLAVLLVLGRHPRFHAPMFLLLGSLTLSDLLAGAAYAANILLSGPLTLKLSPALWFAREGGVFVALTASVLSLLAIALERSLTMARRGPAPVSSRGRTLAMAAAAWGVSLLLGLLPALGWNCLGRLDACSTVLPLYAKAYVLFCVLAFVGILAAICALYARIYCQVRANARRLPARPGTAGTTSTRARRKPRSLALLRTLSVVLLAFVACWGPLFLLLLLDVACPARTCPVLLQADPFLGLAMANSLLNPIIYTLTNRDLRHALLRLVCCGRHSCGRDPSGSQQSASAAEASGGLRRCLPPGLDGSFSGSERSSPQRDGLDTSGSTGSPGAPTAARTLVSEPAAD

[7] = Plasma clearance in Sprague-Dawley rat at 1.0 mg/kg, iv or 2.0 mg/kg, po; type: ADME, organism-based
[8] = (§1) Volume of distribution at steady state in Sprague-Dawley rat at 1.0 mg/kg, iv or 2.0 mg/kg, po; type: ADME, organism-based; details: Sprague-Dawley, in vivo, read-out: Vdss
[9] = (§2) Half life in Sprague-Dawley rat at 1.0 mg/kg, iv or 2.0 mg/kg, po; type: ADME, organism-based; details: Sprague-Dawley, in vivo
[10] = (§3) Bioavailability in Sprague-Dawley rat at 2.0 mg/kg, po; type: ADME, organism-based; details: Sprague-Dawley, in vivo
[11] = system: Rattus norvegicus; assay: as §1; type: ADME, organism-based; details: in vivo
[12] = system: Rattus norvegicus; assay: as §2; type: ADME, organism-based; details: in vivo
[13] = system: Rattus norvegicus; assay: as §3; type: ADME, organism-based; details: in vivo
[14] = Mus musculus, po, read-out: ED50

| SMILES | EC50 [1] | IC50 [3] [nM] | IC50 [4] [nM] | EC50 [5] | EC50 [6] [nM] | clearance [7] [mL/min/kg] | Vd [8] [L/kg] | half-life [9] [h] | bioavailability [10] [%] | Vdss [11] | t1/2 [12] [h] | F [13] [%] | ED50 [2, 14] [mg/kg] | ED50 [2] [mg/kg] |
| --- | --- | --- | --- | --- | --- | --- | --- | --- | --- | --- | --- | --- | --- | --- |
| Cc1cc([C@@H]2C[C@H]2C(=O)O)ccc1-c1noc(-c2ccc(OC(C)C)c(C#N)c2)n1 | 0.93 nM and 0.31 nM | > 10000 | > 10000 | 2660 nM and 2600 nM and > 10000 nM | – | – | – | 4.9 | 84 | 1 L/kg and 0.4 L/kg | 5.9 | 90 | 0.3 | 0.2 |
| Cc1cc(C(C)CC(=O)O)ccc1-c1noc(-c2ccc(OC(C)C)c(C(F)(F)F)c2)n1 (stereo not drawn) | 0.12 nM | > 10000 | > 10000 | 184 nM | 3.9 | 2.9 | 0.6 | 3.1 | 100 | – | – | – | 0.1 | – |
| Cc1cc([C@@H]2C[C@H]2C(=O)O)ccc1-c1noc(-c2ccc(OC(C)C)c(C(F)(F)F)c2)n1 | – | > 10000 | > 10000 | 123 nM | 5.1 | 2.4 | 1.1 | 6.3 | 88 | – | – | – | 0.2 | – |

Further lines, with some results ahead:

| EC50 [1] | IC50 [3] [nM] | IC50 [4] [nM] | EC50 [5] | EC50 [6] [nM] | clearance [7] [mL/min/kg] | Vd [8] [L/kg] | half-life [9] [h] | bioavailability [10] [%] | Vdss [11] | t1/2 [12] [h] | F [13] [%] | SMILES | ED50 [2, 14] [mg/kg] | ED50 [2] [mg/kg] |
| --- | --- | --- | --- | --- | --- | --- | --- | --- | --- | --- | --- | --- | --- | --- |
| 0.08 nM | > 10000 | > 10000 | – | – | – | – | – | – | – | – | – | Cc1cc(CCC(=O)O)ccc1-c1noc(-c2ccc(OC(C)C)c(C(F)(F)F)c2)n1 | 0.3 | – |
| 0.08 nM | > 10000 | > 10000 | – | – | – | – | – | – | – | – | – | Cc1cc(CCC(=O)O)ccc1-c1noc(-c2ccc(OC(C)C)c(C#N)c2)n1 | 0.1 | – |
| 0.3 nM | > 10000 | > 10000 | 400 nM | 9.9 | 7 | 1.5 | 1.7 | 82 | – | – | – | Cc1cc(CC(C)C(=O)O)ccc1-c1noc(-c2ccc(OC(C)C)c(C(F)(F)F)c2)n1 (stereo not drawn) | 0.1 | – |
| 0.44 nM | > 10000 | > 10000 | 2760 nM | 28.6 | 1.2 | 0.3 | 2.4 | 93 | – | – | – | Cc1nc(CCC(=O)O)ccc1-c1noc(-c2ccc(OC(C)C)c(C#N)c2)n1 | 0.2 | – |
| 0.8 nM | > 10000 | > 10000 | > 1000 nM | 37.7 | 1.2 | 0.7 | 7.4 | 89 | – | – | – | Cc1cc([C@H]2C[C@H]2C(=O)O)ccc1-c1noc(-c2ccc(OC(C)C)c(C#N)c2)n1 | 0.7 | – |
